Test results published in PMC11456916, “A screen for cell envelope stress uncovers an inhibitor of prolipoprotein diacylglyceryl transferase, Lgt, in Escherichiacoli” (iScience, 2024).
In brackets after ≈: the same amount, converted by molar mass. Where two headings read alike, the source gives them in different places.

Assays:
[1] = molecular target: T1, prolipoprotein diacylglyceryl transferase, Lgt (Escherichia coli, UniProt P60955); test: In vitro Lgt biochemical assay (phosphatidylglycerol and Pal-IAAC peptide substrates); set-up: species or system E. coli
T1 construct: Expression, purification, and in vitro Lgt biochemical assay were conducted as described by Diao et al; made in house
Source text: With both genetic and phenotypic evidence supporting MAC-0452936 inhibiting Lgt in E. coli, we next investigated whether MAC-0452936 could inhibit Lgt activity in vitro. Recently, a biochemical assay for Lgt activity was developed using phosphatidylglycerol and Pal-IAAC peptide as substrates.[12] […] As similar results were obtained using two different Lgt enzyme preparations, the inhibition observed by MAC-0452936 was not dependent on the preparation of the lipid matrix. Together, we present genetic, phenotypic, and biochemical evidence that MAC-0452936 inhibits the growth of E. coli through inhibition of Lgt. MAC-0452936 represents a previously undiscovered small molecule inhibitor of bacterial Lgt, and the oxime ester represents a promising chemical scaffold for antibiotic discovery.
Expression, purification, and in vitro Lgt biochemical assay were conducted as described by Diao et al.[12]

E. coli ΔtolC-pore = test: MIC assay, E. coli ΔtolC-pore; assay type: cell-based; conditions: LB, 18 h
Procedure: (§1) For MIC assays, cultures of bacteria were grown in LB broth. Overnight cultures were diluted (1:100) into fresh LB media and grown to the mid-log phase of growth (OD600 ∼0.5). Subcultures were then normalized to an OD600 of 0.1, and diluted (1:5000) into assay media. Assay plates were then incubated for 18 h at 37°C, then OD600 was measured using a Biotek Neo plate reader.

E. coli BW25113 = test: MIC assay, wild-type E. coli with or without SPR741; assay type: cell-based; conditions: for reduction in potency relative to MAC-0452936 (1): MIC against E. coli with SPR741
Procedure: We next sought to determine whether we could achieve growth inhibition of wild-type E. coli using MAC-0452936 and an antibiotic adjuvant. […] To that end, we determined the MIC of MAC-0452936 against wild-type E. coli in the presence and absence of a sub-MIC concentration of SPR741 (Figure S8B). […] We leveraged this combination to characterize the spectrum of activity of MAC-0452936 against a panel of Gram-negative pathogens (Table 2). In the presence of 8 μg/mL SPR741, we observed MAC-0452936 activity against the clinical E. coli isolates C0244 and CFT073 at 2 μg/mL as well as against Salmonella Typhimurium SL1344 at 4 μg/mL.
as §1

[2] = system: E. coli ΔtolC-pore harboring CRISPRi plasmids targeting lgt; test: CRISPRi lgt knockdown MIC (low-copy enhancement); assay type: cell-based; conditions: two gRNAs targeting lgt, 100 ng/mL aTc
Source text: We next turned to genetic approaches to confirm the mechanism of action of MAC-0452936. […] To that end, we screened the E. coli CRISPRi collection in the ΔtolC-pore genetic background with a sub-inhibitory concentration of MAC-0452936 and measured the fitness of all 356 CRISPRi mutants (Figure 4C and Data S4). […] Depletion of Lgt by CRISPRi provided supporting evidence that MAC-0452936 targeted Lgt in E. coli; however, we sought to confirm this observation using a parallel genetic approach. We hypothesized that MAC-0452936 potency would also be affected by high-copy expression of lgt. To that end, we introduced either an arabinose inducible copy of lgt supplied on the pCHAP9231 plasmid[48] or the pBAD19s plasmid as a control into E. coli ΔtolC-pore and tested the potency of MAC-0452936 (Figure 4E). Induction of lgt expression with arabinose suppressed the activity of MAC-0452936 by about 8-fold. […] To test this hypothesis, we constructed E. coli ΔlgtΔtolC-pore with pCHAP9231[48] so that lgt expression was driven solely by arabinose from the plasmid. […] To test this observation with MAC-0452936, we introduced an lpp deletion into our screening strain E. coli ΔtolC-pore and assessed the activity of our Lgt inhibitor in this mutant background. […]

[3] = Lgt purified using DDM lipid matrix, read-out: in vitro Lgt inhibition DDM-Lgt IC50
[4] = Lgt purified using amphipol lipid matrix, read-out: in vitro Lgt inhibition Amph-Lgt IC50

T1 sequence (P60955 whole entry): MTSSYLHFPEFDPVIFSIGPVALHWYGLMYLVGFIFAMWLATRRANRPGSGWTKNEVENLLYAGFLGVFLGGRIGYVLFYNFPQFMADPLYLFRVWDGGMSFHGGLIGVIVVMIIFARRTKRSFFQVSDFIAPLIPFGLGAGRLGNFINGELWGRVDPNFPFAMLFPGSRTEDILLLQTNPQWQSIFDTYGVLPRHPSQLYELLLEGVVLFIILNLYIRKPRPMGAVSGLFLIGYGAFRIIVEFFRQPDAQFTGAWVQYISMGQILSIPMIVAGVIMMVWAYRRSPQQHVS

SMILES: CC(C)(C)/C(=N/OC(=O)c1cccnc1)c1cccs1 [compound 3, (Z)-2-Pivaloylthiophene O-(pyridine-3-oyl) oxime]
- IC50 [1, 3]: 3.54 µM
- IC50 [1, 4]: 2.72 µM
- MIC, E. coli ΔtolC-pore (E. coli ΔtolC-pore): 1 µg/mL (≈ 3.47 µM)

SMILES: COc1ccc(C(=O)O/N=C(\c2cccnc2)C(C)(C)C)cc1 [compound 22, (Z)-3-Pivaloylpyridine O-(4-methoxybenzoyl) oxime]
- reduction in potency relative to MAC-0452936 (1) (E. coli BW25113): ≥ 32 fold

SMILES: COc1cc(OC)cc(C(=O)O/N=C(\c2cccs2)C(C)(C)C)c1 [compound 7, (Z)-2-Pivaloylthiophene O-(3,5-dimethoxybenzoyl) oxime]
- MIC, E. coli BW25113 (WT) + 8 μg/mL SPR741 (E. coli BW25113): 4 µg/mL
- IC50 [1, 3]: 58.7 µM
- IC50 [1, 4]: 175 µM
- MIC, E. coli ΔtolC-pore (E. coli ΔtolC-pore): > 32 µg/mL

SMILES: COc1ccc(CC(=O)O/N=C(\c2cccs2)C(C)(C)C)cc1 [compound 16, (Z)-2-Pivaloylthiophene O-(2-(4-methoxyphenyl)acetyl) oxime]
- MIC, E. coli BW25113 (WT) + 8 μg/mL SPR741 (E. coli BW25113): 4 µg/mL
- reduction in potency relative to MAC-0452936 (1) (E. coli BW25113): 8 fold

SMILES: COc1ccc(C(=O)O/N=C(\c2cccs2)C(C)(C)C)c(F)c1 [compound 2, (Z)-2-Pivaloylthiophene O-(2-fluoro-4-methoxybenzoyl) oxime]
- IC50 [1, 3]: 0.77 µM
- IC50 [1, 4]: 0.32 µM
- MIC, E. coli ΔtolC-pore (E. coli ΔtolC-pore): 0.5 µg/mL (≈ 1.49 µM)

SMILES: CO[C@H]1/C=C/O[C@@]2(C)Oc3c(C)c(O)c4c(O)c(c(/C=N/N5CCN(C)CC5)c(O)c4c3C2=O)NC(=O)/C(C)=C\C=C\[C@H](C)[C@H](O)[C@@H](C)[C@@H](O)[C@@H](C)[C@H](OC(C)=O)[C@@H]1C [Rifampicin]
- sensitization upon depletion of Lgt with CRISPRi constructs [2]: not to either of the negative control antibiotics

SMILES: COc1ccc(C(=O)O/N=C(\c2cncs2)C(C)(C)C)cc1 [compound 20, (Z)-5-Pivaloylthiazole O-(4-methoxybenzoyl) oxime]
- reduction in potency relative to MAC-0452936 (1) (E. coli BW25113): ≥ 32 fold

SMILES: CC(C)(C)/C(=N/OC(=O)c1cncs1)c1cccs1 [compound 4, (Z)-2-Pivaloylthiophene O-(thiazol-5-ylcarbonyl) oxime]
- MIC, E. coli BW25113 (WT) + 8 μg/mL SPR741 (E. coli BW25113): 2 µg/mL
- IC50 [1, 3]: 7.68 µM
- IC50 [1, 4]: 4.92 µM
- MIC, E. coli ΔtolC-pore (E. coli ΔtolC-pore): 2 µg/mL (≈ 6.79 µM)

SMILES: COc1ccc(C(=O)O/N=C(\c2cccs2)C(C)(C)C)cc1N [compound 6, (Z)-2-Pivaloylthiophene O-(3-amino-4-methoxybenzoyl) oxime]
- MIC, E. coli BW25113 (WT) + 8 μg/mL SPR741 (E. coli BW25113): 8 µg/mL
- IC50 [1, 3]: 57.3 µM
- IC50 [1, 4]: 95.5 µM
- MIC, E. coli ΔtolC-pore (E. coli ΔtolC-pore): 32 µg/mL (≈ 96.3 µM)

SMILES: CC(C)(C)C(=NOS(N)(=O)=O)c1cccs1 [compound 17, 2-Pivaloylthiophene O-(sulfamoyl) oxime]
- activity against E. coli with SPR741 (E. coli BW25113; in words): inactive

SMILES: Cn1cncc1C(=O)O/N=C(\c1cccs1)C(C)(C)C [compound 5, (Z)-2-Pivaloylthiophene O-(1-methyl-1H-imidazol-5-oyl) oxime]
- MIC, E. coli BW25113 (WT) + 8 μg/mL SPR741 (E. coli BW25113): 4 µg/mL
- IC50 [1, 3]: 7.78 µM
- IC50 [1, 4]: 5.91 µM
- MIC, E. coli ΔtolC-pore (E. coli ΔtolC-pore): 4 µg/mL (≈ 13.7 µM)
